Measurements reported in patent publication US20260262643A1, “HERBICIDAL BENZOXAZINES” (FMC CORPORATION, priority 2022, published 2026).

Experiments:
[1] = test system: barnyardgrass; experiment: Test C preemergence; format: in vivo, Echinochloa crusgalli; settings: for Barnyardgrass plant response rating: 500 g ai/ha, preemergence, 0 to 100 scale (0 no effect, 100 complete control); for Plant response rating, Barnyardgrass: Preemergence, 125 g ai/ha, 0 to 100 scale, 0 no effect, 100 complete control
Procedure, shortened: (§1)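 Test material, in non-phytotoxic solvent with surfactant, was sprayed on the soil directly after seeding (preemergence) or on young plants of 2–10 cm with one to two leaves (postemergence). Greenhouse, 10 days; 0–100 visual control scale.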

[2] = test system: blackgrass; experiment: Test C preemergence; format: in vivo, Alopecurus myosuroides; settings: for Blackgrass plant response rating: 500 g ai/ha, preemergence, 0 to 100 scale (0 no effect, 100 complete control); for Plant response rating, Blackgrass: Preemergence, 125 g ai/ha, 0 to 100 scale, 0 no effect, 100 complete control
Procedure, shortened: as §1

[3] = test system: corn; experiment: Test C preemergence; format: in vivo, Zea mays; settings: for Corn plant response rating: 500 g ai/ha, preemergence, 0 to 100 scale (0 no effect, 100 complete control); for Plant response rating, Corn: Preemergence, 125 g ai/ha, 0 to 100 scale, 0 no effect, 100 complete control
Procedure, shortened: as §1

[4] = test system: green foxtail; experiment: Test C preemergence; format: in vivo, Setaria viridis; settings: for Foxtail, Green plant response rating: 500 g ai/ha, preemergence, 0 to 100 scale (0 no effect, 100 complete control); for Plant response rating, Foxtail, Green: Preemergence, 125 g ai/ha, 0 to 100 scale, 0 no effect, 100 complete control
Procedure, shortened: as §1

[5] = test system: kochia; experiment: Test C preemergence; format: in vivo, Bassia scoparia; settings: for Kochia plant response rating: 500 g ai/ha, preemergence, 0 to 100 scale (0 no effect, 100 complete control); for Plant response rating, Kochia: Preemergence, 125 g ai/ha, 0 to 100 scale, 0 no effect, 100 complete control
Procedure, shortened: as §1

[6] = test system: oat, wild; experiment: Test C preemergence; format: in vivo, Avena fatua; settings: for Oat, Wild plant response rating: 500 g ai/ha, preemergence, 0 to 100 scale (0 no effect, 100 complete control); for Plant response rating, Oat, Wild: Preemergence, 125 g ai/ha, 0 to 100 scale, 0 no effect, 100 complete control
Procedure, shortened: as §1

[7] = test system: pigweed, palmer; experiment: Test C preemergence; format: in vivo, Amaranthus palmeri; settings: for Pigweed, Palmer plant response rating: 500 g ai/ha, preemergence, 0 to 100 scale (0 no effect, 100 complete control); for Plant response rating, Pigweed, Palmer: Preemergence, 125 g ai/ha, 0 to 100 scale, 0 no effect, 100 complete control
Procedure, shortened: as §1

[8] = test system: ragweed; experiment: Test C preemergence; format: in vivo, Ambrosia artemisiifolia; settings: for Ragweed plant response rating: 500 g ai/ha, preemergence, 0 to 100 scale (0 no effect, 100 complete control); for Plant response rating, Ragweed: Preemergence, 125 g ai/ha, 0 to 100 scale, 0 no effect, 100 complete control
Procedure, shortened: as §1

[9] = test system: ryegrass, Italian; experiment: Test C preemergence; format: in vivo, Lolium multiflorum; settings: for Ryegrass, Italian plant response rating: 500 g ai/ha, preemergence, 0 to 100 scale (0 no effect, 100 complete control); for Plant response rating, Ryegrass, Italian: Preemergence, 125 g ai/ha, 0 to 100 scale, 0 no effect, 100 complete control
Procedure, shortened: as §1

[10] = test system: soybean; experiment: Test C preemergence; format: in vivo, Glycine max; settings: for Soybean plant response rating: 500 g ai/ha, preemergence, 0 to 100 scale (0 no effect, 100 complete control); for Plant response rating, Soybean: Preemergence, 125 g ai/ha, 0 to 100 scale, 0 no effect, 100 complete control
Procedure, shortened: as §1

[11] = test system: wheat; experiment: Test C preemergence; format: in vivo, Triticum aestivum; settings: for Wheat plant response rating: 500 g ai/ha, preemergence, 0 to 100 scale (0 no effect, 100 complete control); for Plant response rating, Wheat: Preemergence, 125 g ai/ha, 0 to 100 scale, 0 no effect, 100 complete control
Procedure, shortened: as §1

[12] = test system: barnyardgrass; experiment: Test C postemergence; format: in vivo, Echinochloa crusgalli; settings: 10 days, 0 to 100 scale (0 no effect, 100 complete control)
Procedure, shortened: as §1

[13] = test system: blackgrass; experiment: Test C postemergence; format: in vivo, Alopecurus myosuroides; settings: 10 days, 0 to 100 scale (0 no effect, 100 complete control)
Procedure, shortened: as §1

[14] = test system: corn; experiment: Test C postemergence; format: in vivo, Zea mays; settings: 10 days, 0 to 100 scale (0 no effect, 100 complete control)
Procedure, shortened: as §1

[15] = test system: green foxtail; experiment: Test C postemergence; format: in vivo, Setaria viridis; settings: 10 days, 0 to 100 scale (0 no effect, 100 complete control)
Procedure, shortened: as §1

[16] = test system: kochia; experiment: Test C postemergence; format: in vivo, Bassia scoparia; settings: 10 days, 0 to 100 scale (0 no effect, 100 complete control)
Procedure, shortened: as §1

[17] = test system: oat, wild; experiment: Test C postemergence; format: in vivo, Avena fatua; settings: 10 days, 0 to 100 scale (0 no effect, 100 complete control)
Procedure, shortened: as §1

[18] = test system: pigweed, palmer; experiment: Test C postemergence; format: in vivo, Amaranthus palmeri; settings: 10 days, 0 to 100 scale (0 no effect, 100 complete control)
Procedure, shortened: as §1

[19] = test system: ragweed; experiment: Test C postemergence; format: in vivo, Ambrosia artemisiifolia; settings: 10 days, 0 to 100 scale (0 no effect, 100 complete control)
Procedure, shortened: as §1

[20] = test system: ryegrass, Italian; experiment: Test C postemergence; format: in vivo, Lolium multiflorum; settings: 10 days, 0 to 100 scale (0 no effect, 100 complete control)
Procedure, shortened: as §1

[21] = test system: soybean; experiment: Test C postemergence; format: in vivo, Glycine max; settings: 10 days, 0 to 100 scale (0 no effect, 100 complete control)
Procedure, shortened: as §1

[22] = test system: wheat; experiment: Test C postemergence; format: in vivo, Triticum aestivum; settings: 10 days, 0 to 100 scale (0 no effect, 100 complete control)
Procedure, shortened: as §1

[23] = test system: galium; experiment: Test C postemergence; format: in vivo, Galium aparine; settings: 10 days, 0 to 100 scale (0 no effect, 100 complete control)
Procedure, shortened: as §1

[24] = test system: horseweed; experiment: Test C postemergence; format: in vivo, Erigeron canadensis; settings: 10 days, 0 to 100 scale (0 no effect, 100 complete control)
Procedure, shortened: as §1

[25] = test system: barnyardgrass; experiment: Test D flooded paddy test; format: in vivo, Echinochloa crus-galli; settings: 250 g ai/ha, applied to paddy water, visual rating after 13 to 14 days, scale 0 to 100 (0 no effect, 100 complete control)
Procedure, shortened: (§2)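 2-leaf plants; flood 3 cm above soil; compound dosed into paddy water; greenhouse 13–14 d; visual rating vs controls, 0–100 (100 = complete control); dash = not tested.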

[26] = test system: ducksalad; experiment: Test D flooded paddy test; format: in vivo, Heteranthera limosa; settings: 250 g ai/ha, applied to paddy water, visual rating after 13 to 14 days, scale 0 to 100 (0 no effect, 100 complete control)
Procedure, shortened: as §2

[27] = test system: rice; experiment: Test D flooded paddy test; format: in vivo, Oryza sativa; settings: 250 g ai/ha, applied to paddy water, visual rating after 13 to 14 days, scale 0 to 100 (0 no effect, 100 complete control)
Procedure, shortened: as §2

[28] = test system: sedge, umbrella; experiment: Test D flooded paddy test; format: in vivo, Cyperus difformis; settings: 250 g ai/ha, applied to paddy water, visual rating after 13 to 14 days, scale 0 to 100 (0 no effect, 100 complete control)
Procedure, shortened: as §2

CC(C)c1ncn(-c2ccc([S+](C)[O-])c(C(=O)N3C[C@H](C)Oc4c(Cl)cccc43)c2)n1 (stereo partly shown) [Compound 394]
15: Plant response rating, Barnyardgrass (Flood) [25]
80: Wheat plant response rating [11] | Plant response rating, Pigweed, Palmer ([18]; 500 g ai/ha, postemergence) | Plant response rating, Pigweed, Palmer ([18]; Postemergence, 125 g ai/ha)
60: Plant response rating, Ryegrass, Italian [9]
70: Plant response rating, Barnyardgrass [1] | Plant response rating, Barnyardgrass ([12]; 500 g ai/ha, postemergence) | Plant response rating, Blackgrass ([13]; 500 g ai/ha, postemergence) | Plant response rating, Oat, Wild ([17]; 500 g ai/ha, postemergence) | Plant response rating, Ragweed ([19]; 500 g ai/ha, postemergence) | Plant response rating, Ragweed ([19]; Postemergence, 125 g ai/ha)
10: Plant response rating, Ducksalad (Flood) [26]
20: Plant response rating, Corn [3] | Plant response rating, Soybean [10] | Plant response rating, Wheat [11] | Plant response rating, Corn ([14]; Postemergence, 125 g ai/ha) | Plant response rating, Horseweed ([24]; 500 g ai/ha, postemergence)
90: Blackgrass plant response rating [2] | Plant response rating, Kochia [5] | Oat, Wild plant response rating [6] | Ryegrass, Italian plant response rating [9] | Plant response rating, Foxtail, Green ([15]; 500 g ai/ha, postemergence) | Plant response rating, Kochia ([16]; 500 g ai/ha, postemergence) | Plant response rating, Kochia ([16]; Postemergence, 125 g ai/ha) | Plant response rating, Ryegrass, Italian ([20]; 500 g ai/ha, postemergence)
100: Barnyardgrass plant response rating [1] | Foxtail, Green plant response rating [4] | Plant response rating, Foxtail, Green [4] | Kochia plant response rating [5] | Pigweed, Palmer plant response rating [7] | Plant response rating, Pigweed, Palmer [7] | Soybean plant response rating [10] | Plant response rating, Soybean ([21]; 500 g ai/ha, postemergence) | Plant response rating, Soybean ([21]; Postemergence, 125 g ai/ha) | Plant response rating, Galium ([23]; 500 g ai/ha, postemergence) | Plant response rating, Galium ([23]; Postemergence, 125 g ai/ha)
0: Plant response rating, Ragweed [8] | Plant response rating, Horseweed ([24]; Postemergence, 125 g ai/ha) | Plant response rating, Rice (Flood) [27] | Plant response rating, Sedge, Umbrella (Flood) [28]
50: Ragweed plant response rating [8] | Plant response rating, Barnyardgrass ([12]; Postemergence, 125 g ai/ha) | Plant response rating, Blackgrass ([13]; Postemergence, 125 g ai/ha) | Plant response rating, Corn ([14]; 500 g ai/ha, postemergence) | Plant response rating, Oat, Wild ([17]; Postemergence, 125 g ai/ha) | Plant response rating, Ryegrass, Italian ([20]; Postemergence, 125 g ai/ha) | Plant response rating, Wheat ([22]; 500 g ai/ha, postemergence)
30: Plant response rating, Blackgrass [2] | Corn plant response rating [3] | Plant response rating, Oat, Wild [6] | Plant response rating, Foxtail, Green ([15]; Postemergence, 125 g ai/ha) | Plant response rating, Wheat ([22]; Postemergence, 125 g ai/ha)

COC[C@H]1CN(C(=O)c2cc(-n3cnc(C(C)C)n3)cc3c2OCCO3)c2cccc(Cl)c2O1 [Compound 395]
70: Plant response rating, Soybean [10] | Plant response rating, Barnyardgrass ([12]; 500 g ai/ha, postemergence) | Plant response rating, Corn ([14]; Postemergence, 125 g ai/ha) | Plant response rating, Foxtail, Green ([15]; Postemergence, 125 g ai/ha) | Plant response rating, Ragweed ([19]; Postemergence, 125 g ai/ha)
0: Plant response rating, Barnyardgrass (Flood) [25] | Plant response rating, Ducksalad (Flood) [26] | Plant response rating, Rice (Flood) [27] | Plant response rating, Sedge, Umbrella (Flood) [28]
30: Plant response rating, Corn [3] | Plant response rating, Wheat [11]
60: Plant response rating, Oat, Wild ([17]; 500 g ai/ha, postemergence) | Plant response rating, Ryegrass, Italian ([20]; Postemergence, 125 g ai/ha) | Plant response rating, Horseweed ([24]; 500 g ai/ha, postemergence)
40: Plant response rating, Barnyardgrass ([12]; Postemergence, 125 g ai/ha) | Plant response rating, Blackgrass ([13]; Postemergence, 125 g ai/ha) | Plant response rating, Wheat ([22]; Postemergence, 125 g ai/ha)
100: Barnyardgrass plant response rating [1] | Foxtail, Green plant response rating [4] | Plant response rating, Foxtail, Green [4] | Kochia plant response rating [5] | Plant response rating, Kochia [5] | Pigweed, Palmer plant response rating [7] | Plant response rating, Pigweed, Palmer [7] | Soybean plant response rating [10] | Plant response rating, Kochia ([16]; 500 g ai/ha, postemergence) | Plant response rating, Pigweed, Palmer ([18]; 500 g ai/ha, postemergence) | Plant response rating, Soybean ([21]; Postemergence, 125 g ai/ha) | Plant response rating, Galium ([23]; 500 g ai/ha, postemergence) | Plant response rating, Galium ([23]; Postemergence, 125 g ai/ha)
80: Plant response rating, Barnyardgrass [1] | Plant response rating, Ryegrass, Italian [9] | Wheat plant response rating [11] | Plant response rating, Foxtail, Green ([15]; 500 g ai/ha, postemergence)
50: Plant response rating, Blackgrass [2] | Corn plant response rating [3] | Plant response rating, Oat, Wild [6] | Plant response rating, Oat, Wild ([17]; Postemergence, 125 g ai/ha) | Plant response rating, Horseweed ([24]; Postemergence, 125 g ai/ha)
90: Blackgrass plant response rating [2] | Oat, Wild plant response rating [6] | Ragweed plant response rating [8] | Plant response rating, Ragweed [8] | Ryegrass, Italian plant response rating [9] | Plant response rating, Blackgrass ([13]; 500 g ai/ha, postemergence) | Plant response rating, Corn ([14]; 500 g ai/ha, postemergence) | Plant response rating, Kochia ([16]; Postemergence, 125 g ai/ha) | Plant response rating, Pigweed, Palmer ([18]; Postemergence, 125 g ai/ha)
